Data taken from ChEMBL document CHEMBL3507680, “University of Dundee, Gates Library screen for HepG2 cell viability”.

Test: Human HepG2 cell viability assay in 384 well format
Type: toxicity, cell-based
Set-up: dose 125 nL, time 70.5 hour; concentration not given beside the values
Conditions: HepG2 cells, read-out: Inhibition

Row | SMILES | cytotoxicity at 70.5 h [%]
1 | C/N=C1\c2cc3cc(OC)ccc3n2CCN1C | -6.1
2 | CCOC(=O)Cn1cccc(S(=O)(=O)N2CCCC2)c1=O | -26.6
3 | O=S(=O)(NC1=NCN(CCc2cccs2)CN1)c1ccc(Cl)cc1 | -14.8
4 | NC(=O)C1CCN(C(=O)CCn2ccc3ccc(Br)cc32)CC1 | -33.3
5 | CN(C(=O)Cn1nc(-c2ccc(Br)cc2)ccc1=O)C1CCS(=O)(=O)C1 (stereo unspecified) | -22.4
6 | O=C(NCCCN1CCCC1=O)c1nc(-c2ccc3[nH]ccc3c2)no1 | -29.3
7 | O=C(NCCN1CCCCC1)c1nc(-c2cccc3[nH]ccc23)no1 | 13.5
8 | CNc1oc(-c2cc(S(=O)(=O)N3CCCC3)c(C)o2)nc1C#N | -25
9 | COCCNC(=O)c1nc(-c2ccc3cc[nH]c3c2)no1 | -17.1
10 | CC(O)CNC(=O)CCc1nc2ncccc2[nH]1 (stereo unspecified) | -29.9
11 | O=C(NCCCO)c1nc(-c2ccc3cc[nH]c3c2)no1 | -7.51
12 | CC(C)CCNC(=O)C1CCN(c2ccc3nnc(C(C)C)n3n2)CC1 | -30
13 | O=C1CC(c2ccc(O)cc2)c2c(n3ccsc3nc2=O)N1 (stereo unspecified) | -29.2
14 | CC(C)n1c(=O)nc2n1C(=O)N(c1ccc(Br)cc1)C2 | -16.1
15 | Cc1oc(-c2nc(C#N)c(NC(C)C)o2)cc1S(=O)(=O)N1CCCCC1 | -21.8
16 | CN(C(=O)Cn1nc(-c2ccccc2Cl)ccc1=O)C1CCS(=O)(=O)C1 (stereo unspecified) | -18.5
17 | Cc1oc(-c2nc(C#N)c(NC3CC3)o2)cc1S(=O)(=O)N1CCCC1 | -25.9
18 | CN1CCN(Cn2nc(-c3cccs3)ccc2=O)CC1 | -29.8
19 | COc1ccc(C)cc1-c1csc(N)c1C#N | 13.2
20 | COc1ccc(-c2csc(N)c2C#N)cc1 | -24.3
21 | O=C1C(CS(=O)(=O)Nc2ccccc2)=NC(=O)n2cccc21 | -7.6

Row | SMILES | cytotoxicity at 70.5 h [%]
22 | CC(C)c1ccc(NS(=O)(=O)CC2=NC(=O)n3cccc3C2=O)cc1 | -18.1
23 | O=C1C(CS(=O)(=O)Nc2ccc(Cl)cc2)=NC(=O)n2cccc21 | -26.2
24 | Cc1cccc(NC2CCc3c2[nH]c(=O)n(C2CCCCC2)c3=O)c1C (stereo unspecified) | -19.3
25 | OCCNc1nc(Nc2ccccc2)c2nccnc2n1 | -0.149
26 | CCn1nc2ccc(S(=O)(=O)N3CCSCC3)cn2c1=O | -9.47
27 | Cc1cc(SCC(N)=O)nc(-c2ccc(F)cc2)n1 | -9.61
28 | CC(C)(C)c1noc(-c2ccnc(-n3cnc(C(=O)O)c3)c2)n1 | -4.5
29 | O=C(O)c1cc(-c2ccccc2)ns1 | -20.2
30 | CC(C)c1noc(-c2ccc(-n3cnc(C(=O)O)c3)nc2)n1 | -15.8
31 | CC(C)c1noc(-c2ccnc(-n3cnc(C(=O)O)c3)c2)n1 | -14.7
32 | O=C(c1cnc2ccc(Cl)cc2c1NCc1ccco1)N1CCCCC1 | 23.3
33 | COc1cccc(C(c2c(C)n[nH]c2O)c2c(C)n[nH]c2O)c1OC | -11.7
34 | CCc1c(C)n(CC(C)=O)c2nc3ccccc3n2c1=O | -18.1
35 | Cc1c(C(=O)N2CCN(c3ncccn3)CC2)n(C)c2ccc(Cl)cc12 | -7.85
36 | CC(=O)c1cccc(-n2nc(C(C)=O)c(C(C)=O)c2C)c1 | -2.25
37 | CC(=O)c1nn(-c2ccccc2Cl)c(C)c1C(C)=O | -10.3
38 | COC(=O)CC(c1ccc(OC)c(OC)c1OC)c1c(O)n[nH]c1C (stereo unspecified) | -15.1
39 | CC(C)CC(NC(=O)Nc1ccc(F)c(Cl)c1)C(=O)O (stereo unspecified) | -8.78
40 | CC(=O)c1nn(-c2cccc(Cl)c2)c(C)c1C(C)=O | -12.9
41 | OCCNc1nc(NCc2cccnc2)nc2nccnc12 | 16.3
42 | COCCNc1nc(NCCc2ccccc2)nc2nccnc12 | -1.44

Row | SMILES | cytotoxicity at 70.5 h [%]
43 | COc1ccc(-c2nnsc2C(=O)N2CCN(C(C)=O)CC2)cc1 | -12.8
44 | COc1cc(C2CC(=O)Nc3c2c(=O)[nH]n3C2CCCCC2)ccc1O (stereo unspecified) | -12.4
45 | Cc1nc(CC(=O)N2CCC(c3ccn4nccc4n3)CC2)cs1 | 1.76
46 | CCC(=O)NC(Cc1cc(N(C)C)nc(C2CC2)n1)c1ccccc1 (stereo unspecified) | -2.39
47 | CS(=O)(=O)N1CCc2ccc(C(=O)N3CCn4ncnc4C3)cc21 | -1.85
48 | Cc1cc(=O)[nH]c(NC2CCN(S(=O)(=O)c3ccccc3)CC2)n1 | -2.77
49 | Cc1nc2c(c(=O)[nH]1)CN(Cc1ccc3c(c1)CCCN3C)CC2 | 1.02
50 | O[C@@H]1C[C@H]2CN(Cc3ccccc3)[C@H](Cc3ccccc3)CN2C1 | 27.4
51 | Cc1ccc(-c2nc(C3CCN(C(=O)c4cnn(C)c4)CC3)no2)cn1 | 24.5
52 | Cc1nc(C)c(C(=O)N2CCc3nnc(C4CCCCN4C)n3CC2)s1 (stereo unspecified) | -8.99
53 | COc1cc(CN2CCCC[C@]3(C)NC(=O)CC[C@H]23)ccc1F | -6.42
54 | COCCC(=O)NCc1ccc(-c2ccccc2C(=O)O)cn1 | -6.35
55 | Fc1ccc(Nc2ccc(C3CCN(Cc4ncc[nH]4)CC3)nc2)nc1 | -4.32
56 | O=C(c1cnco1)N1CCC(Cc2cccc3ncccc23)CC1 | 20.4
57 | COCCC(=O)N1CCC(c2nnc(-c3ccsc3)o2)CC1 | -6.73
58 | Oc1cc(C2CCCCN2Cc2cccs2)nc(-c2ccncc2)n1 (stereo unspecified) | -11.8
59 | Cc1ccc(-c2noc(C3CCN3C(=O)c3c(C)noc3C)n2)s1 (stereo unspecified) | -3.14
60 | CC(=O)N1CCC(C(=O)N2CCC2c2nc(-c3ccc(C)s3)no2)CC1 (stereo unspecified) | 9.04
61 | Cc1noc(C)c1C(=O)N1CCC(c2cc3cnccc3[nH]2)CC1 | -5.78
62 | c1nc(N2CCCC2)cnc1C1CCNCC1 | -6.46
63 | NC(=O)c1cccc(-c2cnc(C3CCCNC3)cn2)c1 (stereo unspecified) | -7.33

Row | SMILES | cytotoxicity at 70.5 h [%]
64 | Cc1cc(N2CCOC(c3ccccn3)C2)nc(N)n1 (stereo unspecified) | -3.03
65 | Cn1ccnc1-c1nc(N2CCCCC2)ncc1-c1ccccc1F | -7.17
66 | NC(=O)C1(Cc2ccccc2-c2cncnc2)CCCNC1 (stereo unspecified) | -10.3
67 | CC(CN1CCOCC1)n1cncc1-c1cnn(Cc2ccccc2)c1 (stereo unspecified) | -2.84
68 | COc1ccc(S(=O)(=O)N2CCOC(C)(C(N)=O)C2)cc1 (stereo unspecified) | -3.24
69 | O=C1CN([C@@H]2CC[C@@H](NS(=O)(=O)c3ccccc3)[C@H]2O)CCN1 | -2.13
70 | Cc1nccn1[C@@H]1CC[C@@H](N(C)S(=O)(=O)c2cccc(F)c2)[C@H]1O | -0.727
71 | CN(C)c1ccc(C(=O)N2CCC(c3cc4ncccc4[nH]3)CC2)cc1 | -1.4
72 | O=C(Cc1ccsc1)N1CCC[C@@H]1Cn1c(=O)oc2ccccc21 | -5.78
73 | O=C(c1c(F)cccc1F)N1CCC[C@@H]1Cn1c(=O)oc2ccccc21 | -0.473
74 | Cc1nc(N)cc(C2(C)CCCNC2)n1 (stereo unspecified) | -5.33
75 | c1cn(-c2nccnc2C2CCCN(C3CCOCC3)C2)cn1 (stereo unspecified) | -5.56
76 | CC(=O)N1CCC(c2ncc(C(=O)Nc3ccccc3)c(C)n2)CC1 | -4.36
77 | Cn1ccc(C(=O)N2CCCC2c2cc(CCO)[nH]n2)n1 (stereo unspecified) | -1.26
78 | CCN(CC)S(=O)(=O)N1CCCC(c2ncc3c(n2)CCN(C)C3)C1 (stereo unspecified) | 23.8
79 | CC(CNCc1ccc(Cl)cc1)Oc1ccccn1 (stereo unspecified) | -10
80 | CC(CNCc1ccc2c(c1)n(C)c(=O)n2C)Oc1ccccn1 (stereo unspecified) | -24.7
81 | c1cc(NCc2ccncc2)nc(C2CCCN2)c1 (stereo unspecified) | 2.66
